Assay results taken from the SangsterLogP compilation.

Key:
[1] = method code SF-HPLC, from DOI: 10.1016/s0021-9673(01)84554-4; conditions: for logD: pH 7.4

Row | SMILES | logD [1] | other results
1 | C[C@@H]1C[C@H]2[C@@H]3CCC4=CC(=O)C=C[C@]4(C)[C@@]3(F)[C@@H](O)C[C@]2(C)[C@@]1(O)C(N)=O | 1.41 | 
2 | CC1CC2C3CCC4=CC(=O)C=CC4(C)C3(F)C(O)CC2(C)C1(O)C(=O)NCCCCCCCCCN (stereo unspecified) |  | logP [1]: 4.13
3 | CCNC(=O)C1(O)C(C)CC2C3CCC4=CC(=O)C=CC4(C)C3(F)C(O)CC21C (stereo unspecified) | 2.07 | 
4 | CNC(=O)C1(O)C(C)CC2C3CCC4=CC(=O)C=CC4(C)C3(F)C(O)CC21C (stereo unspecified) | 1.54 | 
5 | CC(C)NC(=O)C1(O)C(C)CC2C3CCC4=CC(=O)C=CC4(C)C3(F)C(O)CC21C (stereo unspecified) | 2.43 | 
6 | COC(=O)CNC(=O)C1(O)C(C)CC2C3CCC4=CC(=O)C=CC4(C)C3(F)C(O)CC21C (stereo unspecified) | 1.69 | 
7 | COc1ccccc1CNC(=O)C1(O)C(C)CC2C3CCC4=CC(=O)C=CC4(C)C3(F)C(O)CC21C (stereo unspecified) |  | logP: 3.09
8 | CC1CC2C3CCC4=CC(=O)C=CC4(C)C3(F)C(O)CC2(C)C1(O)C(=O)NC1CCCCC1 (stereo unspecified) | 3.54 | 
9 | CC1CC2C3CCC4=CC(=O)C=CC4(C)C3(F)C(O)CC2(C)C1(O)C(=O)NC(CO)c1ccccc1 (stereo unspecified) | 2.89 | 
10 | CC1CC2C3CCC4=CC(=O)C=CC4(C)C3(F)C(O)CC2(C)C1(O)C(=O)NCCCCCCCCN (stereo unspecified) |  | logP [1]: 3.72
11 | CC1CC2C3CCC4=CC(=O)C=CC4(C)C3(F)C(O)CC2(C)C1(O)C(=O)NCc1ccc([N+](=O)[O-])cc1 (stereo unspecified) |  | logP: 3.37
12 | CC1CC2C3CCC4=CC(=O)C=CC4(C)C3(F)C(O)CC2(C)C1(O)C(=O)NCCCCN (stereo unspecified) |  | logP [1]: 2.3
13 | CC1CC2C3CCC4=CC(=O)C=CC4(C)C3(F)C(O)CC2(C)C1(O)C(=O)NCCCCCC(=O)O (stereo unspecified) |  | logP [1]: 2.29
14 | CC1CC2C3CCC4=CC(=O)C=CC4(C)C3(F)C(O)CC2(C)C1(O)C(=O)NCCCCCCN (stereo unspecified) |  | logP [1]: 2.61
15 | CC(C)CNC(=O)C1(O)C(C)CC2C3CCC4=CC(=O)C=CC4(C)C3(F)C(O)CC21C (stereo unspecified) | 3.01 | 
16 | CCOC(CNC(=O)C1(O)C(C)CC2C3CCC4=CC(=O)C=CC4(C)C3(F)C(O)CC21C)OCC (stereo unspecified) | 2.65 | 
17 | CC1CC2C3CCC4=CC(=O)C=CC4(C)C3(F)C(O)CC2(C)C1(O)C(=O)NCCCl (stereo unspecified) | 2.73 | 
18 | CC1CC2C3CCC4=CC(=O)C=CC4(C)C3(F)C(O)CC2(C)C1(O)C(=O)NCc1ccccc1 (stereo unspecified) | 3.28 | 

Row | SMILES | logD [1] | other results
19 | CC1CC2C3CCC4=CC(=O)C=CC4(C)C3(F)C(O)CC2(C)C1(O)C(=O)NCCO (stereo unspecified) | 1.51 | 
20 | CC(C)CCNC(=O)C1(O)C(C)CC2C3CCC4=CC(=O)C=CC4(C)C3(F)C(O)CC21C (stereo unspecified) | 3.74 | 
21 | CCCCNC(=O)C1(O)C(C)CC2C3CCC4=CC(=O)C=CC4(C)C3(F)C(O)CC21C (stereo unspecified) | 3.1 | 
22 | CCCCCCNC(=O)C1(O)C(C)CC2C3CCC4=CC(=O)C=CC4(C)C3(F)C(O)CC21C (stereo unspecified) | 4.54 | 
23 | CC1CC2C3CCC4=CC(=O)C=CC4(C)C3(F)C(O)CC2(C)C1(O)C(=O)NC(C)(C)C (stereo unspecified) | 3.2 | 
24 | CC1CC2C3CCC4=CC(=O)C=CC4(C)C3(F)C(O)CC2(C)C1(O)C(=O)NCCc1ccccc1 (stereo unspecified) | 3.66 | 
25 | CC(C)CCCNC(=O)C1(O)C(C)CC2C3CCC4=CC(=O)C=CC4(C)C3(F)C(O)CC21C (stereo unspecified) | 3.93 | 
26 | CC(C)CCCCNC(=O)C1(O)C(C)CC2C3CCC4=CC(=O)C=CC4(C)C3(F)C(O)CC21C (stereo unspecified) |  | logP: 3.91
27 | C#CCNC(=O)C1(O)C(C)CC2C3CCC4=CC(=O)C=CC4(C)C3(F)C(O)CC21C (stereo unspecified) | 2 | 
28 | CCCCCNC(=O)C1(O)C(C)CC2C3CCC4=CC(=O)C=CC4(C)C3(F)C(O)CC21C (stereo unspecified) | 3.64 | 
29 | CCCNC(=O)C1(O)C(C)CC2C3CCC4=CC(=O)C=CC4(C)C3(F)C(O)CC21C (stereo unspecified) | 2.59 | 
30 | COC(=O)C(Cc1ccccc1)NC(=O)C1(O)C(C)CC2C3CCC4=CC(=O)C=CC4(C)C3(F)C(O)CC21C (stereo unspecified) | 3.4 | 
31 | CCCNCCNC(=O)C1(O)C(C)CC2C3CCC4=CC(=O)C=CC4(C)C3(F)C(O)CC21C (stereo unspecified) |  | logP [1]: 3.94
32 | COc1ccc(CNC(=O)C2(O)C(C)CC3C4CCC5=CC(=O)C=CC5(C)C4(F)C(O)CC32C)cc1 (stereo unspecified) |  | logP: 3.04
33 | CC1CC2C3CCC4=CC(=O)C=CC4(C)C3(F)C(O)CC2(C)C1(O)C(=O)NCc1ccc(Cl)cc1 (stereo unspecified) |  | logP: 3.71
34 | CC1CC2C3CCC4=CC(=O)C=CC4(C)C3(F)C(O)CC2(C)C1(O)C(=O)NCC(=O)O (stereo unspecified) |  | logP [1]: 1.2
35 | COc1cccc(CNC(=O)C2(O)CC3C4CCC5=CC(=O)C=CC5(C)C4(F)C(O)CC32C)c1 (stereo unspecified) |  | logP: 3.15
36 | CC1CC2C3CCC4=CC(=O)C=CC4(C)C3(F)C(O)CC2(C)C1(O)C(=O)NCC#N (stereo unspecified) | 1.57 | 
